Format in all cases: cell-based
One assay concerns the target T1, recombinant CYP-11 (Homo sapiens, UniProt P15538).
T1 construct: expressed in transfected cells
T1 sequence (P15538 25-503): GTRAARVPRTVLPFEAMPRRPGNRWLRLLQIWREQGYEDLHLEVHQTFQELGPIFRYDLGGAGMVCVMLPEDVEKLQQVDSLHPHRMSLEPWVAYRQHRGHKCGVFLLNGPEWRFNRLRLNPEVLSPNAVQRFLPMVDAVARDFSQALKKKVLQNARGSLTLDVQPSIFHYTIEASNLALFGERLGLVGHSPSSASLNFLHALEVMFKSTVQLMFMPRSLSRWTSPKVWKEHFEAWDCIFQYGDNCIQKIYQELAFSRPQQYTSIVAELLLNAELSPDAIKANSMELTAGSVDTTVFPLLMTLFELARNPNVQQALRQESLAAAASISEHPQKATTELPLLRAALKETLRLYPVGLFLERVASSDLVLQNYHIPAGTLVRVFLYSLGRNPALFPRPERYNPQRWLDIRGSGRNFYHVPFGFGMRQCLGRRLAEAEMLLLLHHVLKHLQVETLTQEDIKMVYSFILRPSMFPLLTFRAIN
The experiment in a line: Cyp11 assay: cortisol formation from 11-deoxycortisol in AD293 cells, LC/MS. The settings on record: AD293 cells stably over-expressing recombinant CYP-11; eight concentrations 10 μM to 4.5 nM. The procedure:
Cyp11 assay protocol: AD293 cells that stably over-express recombinant CYP-11 were seeded in 96 well plates coated with poly D-lysine (15,000 cell per well) and incubated at 37° C. for 24 hours in Dulbecco's Modified Eagle Medium (DMEM) with Fetal Bovine Serum (FBS) that is stripped of hormones by charcoal treatment. The media is then removed, the cells are washed once with Phosphate buffer saline solution, and 50 μL Dulbecco's Modified Eagle Medium (DMEM) with Fetal Bovine Serum (FBS) that is stripped of hormones by charcoal treatment is added. Compounds of the disclosure are then added to the wells in eight concentration spanning 10 μM to 4.5 nM, and the plates are incubated for an additional 60 minutes at 37° C. 11-deoxycortisol is then added ([…]) and the plates are incubated for an additional 12 hours at 37° C. After incubation, 50 uL of the supernatant (medium) is transferred into a fresh plate and 150 uL of an acetonitrile solution containing 200 ng/ml of Telmisartan is added. The sample is mixed and then placed in a centrifuge at 2000 rpm for 5 minutes. 100 uL of the supernatant is transferred into a fresh 96 well deep well plate, 100 uL of 1:1 methanol: water was added, the solution was mixed and then analyzed by LC/MS for the presence of cortisol using an Agilent 1200 RRLC/ABSCIEX API4000 LC-MS or Shimadzu Prominance/ABSCIEX API4000 LC-MS to determine IC50s of the compounds of the disclosure.

In the next assay the target is T2, recombinant CYP-21 (Homo sapiens, UniProt P08686).
T2 construct: expressed in transfected cells
T2 sequence (P08686 1-495): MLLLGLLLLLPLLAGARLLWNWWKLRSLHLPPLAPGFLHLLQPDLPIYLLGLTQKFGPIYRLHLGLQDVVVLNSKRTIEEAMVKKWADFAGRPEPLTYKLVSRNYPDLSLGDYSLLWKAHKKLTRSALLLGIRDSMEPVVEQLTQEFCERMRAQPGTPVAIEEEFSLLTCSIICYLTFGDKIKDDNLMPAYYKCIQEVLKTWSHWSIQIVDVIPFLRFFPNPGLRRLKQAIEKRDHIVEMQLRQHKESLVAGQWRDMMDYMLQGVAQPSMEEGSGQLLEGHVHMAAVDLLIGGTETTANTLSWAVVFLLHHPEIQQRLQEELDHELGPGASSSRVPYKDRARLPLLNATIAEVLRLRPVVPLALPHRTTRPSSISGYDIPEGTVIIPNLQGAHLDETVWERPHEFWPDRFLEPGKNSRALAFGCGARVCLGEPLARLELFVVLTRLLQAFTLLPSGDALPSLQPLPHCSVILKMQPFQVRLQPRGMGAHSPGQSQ
The experiment in a line: Cyp21 assay: 11-deoxycortisol formation from 17-OH Progesterone in AD293 cells, LC/MS. The settings on record: AD293 cells stably over-expressing recombinant CYP-21; eight concentrations 10 μM to 4.5 nM. The protocol: Cyp21 assay protocol: AD293 cells that stably over-express recombinant CYP-21 were seeded in 96 well plates coated with poly D-lysine (10,000 cell per well) and incubated at 37° C. for 24 hours in Dulbecco's Modified Eagle Medium (DMEM) with Fetal Bovine Serum (FBS) that is stripped of hormones by charcoal treatment. The media is then removed, the cells are washed once with Phosphate buffer saline solution, and 50 μL Dulbecco's Modified Eagle Medium (DMEM) with Fetal Bovine Serum (FBS) that is stripped of hormones by charcoal treatment is added. Compounds of the disclosure are then added to the wells in eight concentration spanning 10 μM to 4.5 nM, and the plates are incubated for an additional 60 minutes at 37° C. 17-OH Progesterone is then added ([…]) and the plates are incubated for an additional 45 minutes at 37° C. After incubation, 50 uL of the supernatant (medium) is transferred into a fresh plate and 150 uL of an acetonitrile solution containing 200 ng/ml of Telmisartan is added. The sample is mixed and then placed in a centrifuge at 2000 rpm for 5 minutes.

A further assay deals with T3, recombinant CYP-17 (Homo sapiens, UniProt P05093).
T3 construct: expressed in transfected cells
T3 sequence (P05093 1-508): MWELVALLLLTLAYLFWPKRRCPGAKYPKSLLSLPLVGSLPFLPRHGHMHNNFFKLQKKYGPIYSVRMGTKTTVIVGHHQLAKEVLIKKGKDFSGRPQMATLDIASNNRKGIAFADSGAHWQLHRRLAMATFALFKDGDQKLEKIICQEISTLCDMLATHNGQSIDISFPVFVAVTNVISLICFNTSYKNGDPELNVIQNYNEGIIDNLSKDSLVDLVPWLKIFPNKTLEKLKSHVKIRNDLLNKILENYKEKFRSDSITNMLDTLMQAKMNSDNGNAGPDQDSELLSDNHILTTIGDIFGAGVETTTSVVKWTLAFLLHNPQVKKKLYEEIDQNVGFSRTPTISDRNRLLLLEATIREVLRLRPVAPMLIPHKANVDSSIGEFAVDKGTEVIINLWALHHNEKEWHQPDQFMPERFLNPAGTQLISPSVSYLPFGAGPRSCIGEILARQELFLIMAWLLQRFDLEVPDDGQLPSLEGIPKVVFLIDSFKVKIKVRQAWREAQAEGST
The experiment in a line: Cyp17 assay: 3H-acetic acid release from [21-3H] 17α-hydroxyl-Pregnenolone in AD293 cells. The settings on record: AD293 cells stably over-expressing recombinant CYP-17; eight concentrations 10 μM to 4.5 nM. The procedure: Cyp17 assay protocol: AD293 cells that stably over-express recombinant CYP-17 were seeded in 96 well plates coated with poly D-lysine (15,000 cell per well) and incubated at 37° C. for 24 hours in Dulbecco's Modified Eagle Medium (DMEM) with Fetal Bovine Serum (FBS) that is stripped of hormones by charcoal treatment. The media is then removed, the cells are washed once with Phosphate buffer saline solution, and 50 μL Dulbecco's Modified Eagle Medium (DMEM) with Fetal Bovine Serum (FBS) that is stripped of hormones by charcoal treatment is added. Compounds of the disclosure are then added to the wells in eight concentration spanning 10 μM to 4.5 nM, and the plates are incubated for an additional 60 minutes at 37° C. [21-^3H] 17α-hydroxyl-Pregnenolone is then added (50 nCi per well, 31.25 nM) and the plates are incubated for an additional 4 hours at 37° C. The media is then collected, 200 μL of chloroform is added, and the mixture is shaken for 1 hour. The aqueous layer is then separated and analyzed for the presence of ^3H-acetic acid using a Perkin Elmer Topcount NXT to determine IC50s of the compounds of the disclosure.

Molecules are shown by their SMILES.

As to `COc1cc(F)ccc1-c1ccc(C2(c3ccncc3)OCCO2)cc1` [Entry 4, 4-[2-(4′-Fluoro-2′-methoxy-biphenyl-4-yl)-[1,3]dioxolan-2-yl]-pyridine], the half-maximal inhibitory concentration (IC50) on recombinant CYP-11 was no less than 10000 nM; at recombinant CYP-21, 320 nM.

`COc1ccc(-c2ccc(C(c3ccncc3)N3CCCCC3)cc2)cc1OC` (stereo not drawn) [Entry 9]: the IC50 at recombinant CYP-17 came to 14 nM; on recombinant CYP-21, 1200 nM.

`CCN1CCN(C(c2ccncc2)c2ccc(-c3ccc(F)cc3OC)cc2)CC1` (stereo not drawn) [Entry 28, 1-ethyl-4-((4′-fluoro-2′-methoxy-[1,1′-biphenyl]-4-yl)(pyridin-4-yl)methyl)piperazine]: the IC50 at recombinant CYP-17 is 117 nM; at recombinant CYP-11, no less than 10000 nM; on recombinant CYP-21 it was no less than 10000 nM.

On to `COc1ccc(-c2ccc(C3(c4ccncc4)OCCO3)cc2)cc1OC` [Entry 16, 4-[2-(3′,4′-dimethoxy-biphenyl-4-yl)-[1,3]dioxolan-2-yl]-pyridine], for which the figures for the half-inhibitory concentration (IC50) on recombinant CYP-17, at recombinant CYP-11 and on recombinant CYP-21 were 23 nM, 1400 nM and 565 nM, respectively.

Turning to `COc1cc(F)ccc1-c1ccc(C2(c3ccncc3)OCC(C)CO2)cc1` (stereo not drawn) [Entry 5, 4-[2-(4′-Fluoro-2′-methoxy-biphenyl-4-yl)-5-methyl-[1,3]dioxan-2-yl]-pyridine], the IC50 at recombinant CYP-17 was 126 nM; at recombinant CYP-11, no less than 10000 nM; on recombinant CYP-21, 520 nM.

For `CCOC(c1ccncc1)c1ccc(-c2ccc(OC)c(OC)c2)cc1` (stereo not drawn) [Entry 14, 4-(ethoxy(3′,4′-dimethoxy-[1,1′-biphenyl]-4-yl)methyl)pyridine], the results for the IC50 at recombinant CYP-17 and at recombinant CYP-21 were 26 nM and 190 nM, respectively.

`COc1cc(F)ccc1-c1ccc(C(NCCNC(=O)OC(C)(C)C)c2ccncc2)cc1` (stereo not drawn) [Entry 25, tert-butyl(2-(((4′-fluoro-2′-methoxy-[1,1′-biphenyl]-4-yl)(pyridin-4-yl)methyl)amino)ethyl)carbamate]: the IC50 worked out at 31 nM at recombinant CYP-17, 4200 nM at recombinant CYP-11 and 4000 nM at recombinant CYP-21.

As for `COc1ccc(-c2ccc(C(c3ccncc3)N3CCOCC3)cc2)cc1OC` (stereo not drawn) [Entry 10, 4-((3′,4′-Dimethoxy-[1,1′-biphenyl]-4-yl)(pyridin-4-yl)methyl)morpholine], the half-inhibitory concentration (IC50) came to 10 nM on recombinant CYP-17 and 1800 nM on recombinant CYP-21.

With `COc1ccc(-c2ccc(C(OC)c3ccncc3)cc2)cc1OC` (stereo not drawn) [Entry 15, 4-(methoxy(3′,4′-dimethoxy-[1,1′-biphenyl]-4-yl)methyl)pyridine], the IC50 on recombinant CYP-17 came out at 11 nM; at recombinant CYP-21, 180 nM.

Take `COc1ccc(-c2ccc(C(F)c3ccncc3)cc2)cc1OC` (stereo not drawn) [Entry 7]: the values for the IC50 at recombinant CYP-17, at recombinant CYP-11 and at recombinant CYP-21 were 14 nM, no less than 10000 nM and 940 nM, respectively.

With `COc1cc(F)ccc1-c1ccc(C2(c3ccncc3)OCC(C)(C)CO2)cc1` [Entry 6, 4-[2-(4′-Fluoro-2′-methoxy-biphenyl-4-yl)-5,5-dimethyl-[1,3]dioxan-2-yl]-pyridine], the figures for the half-maximal inhibitory concentration (IC50) at recombinant CYP-17, on recombinant CYP-11 and on recombinant CYP-21 were 600 nM, no less than 10000 nM and 2200 nM, respectively.

On to `COc1ccc(-c2ccc(C(c3ccncc3)N3CCN(C)CC3)cc2)cc1OC` (stereo not drawn) [Entry 12, 1-((3′4′-dimethoxy-[1,1′-biphenyl]-4-yl)(pyridin-4-yl)methyl)-4-methylpiperazine], for which the 50% inhibitory concentration (IC50) is 77 nM at recombinant CYP-17 and no less than 10000 nM at recombinant CYP-21.

Take `COc1cc(F)ccc1-c1ccc(C2(c3ccncc3)OCCO2)cc1` [Entry 3, 4-[2-(4′-Fluoro-2′-methoxy-biphenyl-4-yl)-[1,3]dioxolan-2-yl]-pyridine]: the IC50 turned out to be 2000 nM on recombinant CYP-11 and 820 nM on recombinant CYP-21.

As for `COc1ccc(-c2ccc(C(c3ccncc3)N3CCCC3)cc2)cc1OC` (stereo not drawn) [Entry 11, 4-((3′4′-dimethoxy-[1,1′-biphenyl]-4-yl)(pyrrolidin-1-yl)methyl)pyridine], the IC50 stood at 10 nM on recombinant CYP-17 and 2500 nM at recombinant CYP-21.

For the compound `COc1ccc(-c2ccc(C(OC(C)C)c3ccncc3)cc2)cc1OC` (stereo not drawn) [Entry 13, 4-(isopropoxy(3′,4′-dimethoxy-[1,1′-biphenyl]-4-yl)methyl)pyridine], the IC50 on recombinant CYP-17 worked out at 10 nM; on recombinant CYP-21, 210 nM.

In general, IC50 refers to the concentration needed to halve the response being measured.

These data come from patent publication US20150210641A1, “NOVEL CYTOCHROME P450 INHIBITORS AND THEIR METHOD OF USE” (CORTENDO AB (PUBL), priority 2014, published 2015).
